Earlier results on one compound are cited in US20160355464A1, “FUMARATE COMPOUNDS, PHARMACEUTICAL COMPOSITIONS THEREOF, AND METHODS OF USE” (priority 2015, published 2016).

Regarding `COC(=O)/C=C/C(=O)OC` [DMF, dimethylfumarate], the aqueous solubility entry is given as “poor aqueous solubility”.
